The subject of test [1] is 22Rv1 prostate cancer cells. As to the kind of experiment: 22Rv1 cell viability (MTS assay). It is filed as cell-based. The note with it: 72 h. How it is done: Cell culture and reagents. 22Rv1 cells were purchased from the American Type Culture Collection (ATCC in 2016) and cultured in RPMI 1640 supplemented with 10% Fetal Bovine Serum (FBS, Fisher Scientific, MT35011CV) and Penicillin-Streptomycin Solution (1%, Fisher Scientific, MT30001Cl) at 37 °C in a humidified incubator with 5% carbon dioxide atmosphere. Stock solutions of E3 ligase ligand, lenalidomide 6 (10 mM), PROTAC 5 (25 mM), and AKR1C3 inhibitor 3 (100 mM) were prepared in DMSO.
Cell viability assay. Cells were seeded at a density of 10,000 cells/well in a 96-well plate containing 100 μL growth media per well and were incubated at 37 °C in a humidified incubator with 5% carbon dioxide over ~18-24 hours. Cells were treated with 6, 5, and 3 serially diluted at the indicated concentrations limiting the final DMSO concentration to less than 0.1% and incubated at 37 °C for 72 hours. 10 μL of MTS reagent (CellTiter96®Aqueous One Solution Reagent, Promega, G3580) was added to each well and incubated at the above-mentioned conditions for 4 hours. Absorbance was recorded at OD 490 nm on a Synergy LX multi-mode reader and the viability of cells were plotted as percentage of DMSO control.
For orientation: Formazan colour is commonly taken as a measure of viable cells.

A further test concerns the target T1, AKR1C3 (Homo sapiens, UniProt P42330).
T1 sequence (P42330 1-323): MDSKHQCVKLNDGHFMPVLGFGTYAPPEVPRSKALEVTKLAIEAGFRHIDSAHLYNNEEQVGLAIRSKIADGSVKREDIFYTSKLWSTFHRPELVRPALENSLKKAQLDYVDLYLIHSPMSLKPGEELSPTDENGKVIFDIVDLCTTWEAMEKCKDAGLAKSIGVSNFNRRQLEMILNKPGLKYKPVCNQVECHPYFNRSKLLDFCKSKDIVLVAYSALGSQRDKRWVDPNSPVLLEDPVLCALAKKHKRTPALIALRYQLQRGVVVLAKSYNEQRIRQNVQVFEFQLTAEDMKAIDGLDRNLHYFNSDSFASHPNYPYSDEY
As to the kind of experiment: AKR1C3 protein degradation in 22Rv1 prostate cancer cells (Western blot). Also on record: 22Rv1 prostate cancer cells that express high levels of AKR1C3; host or cells: 22Rv1. In kind it is cell-based. The settings on record: read-out: AKR1C3 DC50 (half-maximal degradation concentration); 72 hours. A general note: Immunoblotting shows a protein as a band on a membrane.

The term IC50 denotes the concentration at which inhibition is half-maximal. For the compound `O=C(O)/C=C/c1cc(C(=O)NCc2ccc(OCc3cn(CCOCCOCC(=O)Nc4cccc5c4CN(C4CCC(=O)NC4=O)C5=O)nn3)cc2)cc(-c2ccccc2)c1` (stereo not drawn) [Compound IA, (E)-3-(5-((4-((1-(2-(2-(2-((2-(2,6-dioxopiperidin-3-yl)-1-oxoisoindolin-4-yl)amino)-2-oxoethoxy)ethoxy)ethyl)-1H-1,2,3-triazol-4-yl)methoxy)benzyl)carbamoyl)-[1,1 ? biphenyl]-3-yl)acrylic acid], the “22Rv1 cell viability activity in words” value in test [1] is “equipotent”. The IC50 in test [1] (Homo sapiens, 22Rv1, MTS, mean±standard deviation of two independent experiments) was determined as 49.3 ± 1.4 µM. Besides, the DC50 on AKR1C3 amounted to 0.052 µM.

(Values after patent US20260364181A1, “AKR1C3 Targeted Heterobifunctional Small Molecule Proteolysis Targeting Chimeras” (BOARD OF REGENTS OF THE UNIVERSITY OF NEBRASKA, priority 2022, published 2026).)
